Reference: patent US12427129B2, “Application of compound amino acids in preparation of medicament for improving sensitivity of bacteria to antibiotics” (SUN YAT-SEN UNIVERSITY, priority 2020, dated 2025)
≈ marks a conversion by molar mass, not a printed value. Read-outs that look alike come from different tables or passages of the source.

Assays:
[1] = test system: resistant bacteria K12-RCZO; assay type: cell-based, Escherichia coli
Description: Preparation of bacterial samples: monoclonal bacteria of sensitive bacteria K12 or resistant bacteria K12-RCZO were picked and inoculated in 50 mL LB liquid medium respectively. After incubation for 17 h at 37° C. and 200 rpm, bacterial cells were collected by centrifugation at 8000 rpm for 4 min; the bacterial cells were washed twice with 0.85% normal saline, suspended in 1×M9 medium, adjusted to OD600 as 0.6, and then dispensed 5 mL into test tubes for subsequent experimental research.
Each of prepared bacterial samples was divided into 4 groups: control group, group of 2 mM 5% compound amino acids added only, and group of cefazolin antibiotics added only (a concentration being 80 μg/mL for sensitive bacteria K12, and a concentration being 2 mg/mL for resistant bacteria K12-RCZO), and group of cefazolin and 2 mM compound amino acids added. Bacteria were incubated at 37° C. and 200 rpm for 6 h, and then 100 μL was taken for doubling dilution, and 10 μL of bacterial solution was taken therefrom for plate count to calculate a survival rate of bacteria; results are shown in FIG. 3.
In order to explore the relationship between compound amino acids improving sensitivity of resistant bacteria to antibiotics and antibiotic concentration, 8 cefazolin concentration gradients (0, 62.5, 125, 250, 500, 1,000, 2,000 and 4,000 μg/mL) were set up; then, 2 mM compound amino acids were added or not added, respectively, after 6 h, plate count method was used to count viable bacteria; under the same antibiotics concentration, survival rates of bacteria when compound amino acids not added (control) and after compound amino acids added were compared.

[2] = test system: Escherichia coli cefazolin-resistant bacteria; experiment: survival rate with single amino acids or amino acid combination in synergy with cefazolin; assay type: cell-based
Description: Each amino acid in 2 mM compound amino acids was added alone with a corresponding concentration, and through survival rate of bacteria, it was studied improvement on sensitivity of bacteria to antibiotics when each amino acid was in synergy with cefazolin.

[3] = test system: Escherichia coli sensitive bacteria K12; experiment: MIC against cefazolin; assay type: cell-based
Source text: (§1) Escherichia coli (E. coli) is one of the most common bacteria in clinical practice. 35 Escherichia coli strains clinically obtained were named as Y1 to Y12, Y15 to Y24, Y27, Y28, and Y30 to Y40. The minimum inhibitory concentration (MIC) of these 35 Escherichia coli strains clinically obtained against cefazolin antibiotics was detected according to the NCCLS method, at the same time, Escherichia coli sensitive bacteria K12 and cefazolin-resistant bacteria K12-RCZO were used as controls to determine the MIC.

[4] = test system: Escherichia coli cefazolin-resistant bacteria (K12-RCZO); experiment: MIC against cefazolin; assay type: cell-based
Source text: as §1

[5] = test system: Escherichia coli strains clinically obtained; experiment: MIC against cefazolin (NCCLS method); assay type: cell-based
Source text: as §1

[6] = test system: Escherichia coli sensitive bacteria K12; experiment: survival rate of bacteria by plate count, compound amino acids in synergy with antibiotics; assay type: cell-based; details: for survival rate of bacteria: first of 7 values, taken as no compound amino acids
[7] = test system: Pseudomonas aeruginosa; experiment: survival rate, compound amino acids in synergy with cefazolin; assay type: cell-based; details: cefazolin 80 μg/mL without compound amino acids, 6 h
Description: (§2) Other Gram-negative bacteria such as Vibrio alginolyticus, Vibrio parahaemolyticus, and Pseudomonas aeruginosa, and Gram-positive bacteria Bacillus subtilis were selected as research objects to investigate bactericidal effect of compound amino acids in synergy with cefazolin; among them, concentration of compound amino acids was 2 mM, concentration of cefazolin was 80 μg/mL, and incubation time was 6 h, a relative survival rate of bacteria was calculated.

[8] = test system: Vibrio parahaemolyticus; experiment: as above; assay type: cell-based; details: cefazolin 80 μg/mL without compound amino acids, 6 h
Description: as §2

[9] = test system: Bacillus subtilis; experiment: as above; assay type: cell-based; details: cefazolin 80 μg/mL without compound amino acids, 6 h
Description: as §2

[10] = test system: Vibrio alginolyticus; experiment: as above; assay type: cell-based; details: cefazolin 80 μg/mL without compound amino acids, 6 h
Description: as §2

[11] = test system: balofloxacin-resistant bacteria (K12-RBLFX); experiment: survival rate of bacteria, compound amino acids in synergy with balofloxacin; assay type: cell-based, Escherichia coli; details: balofloxacin 25 μg/mL; second of 8 values, taken as balofloxacin without compound amino acids
Description: Taking Escherichia coli sensitive bacteria K12 and balofloxacin-resistant artificially passaged resistant bacteria (K12-RBLFX) as research objects, for the former, concentration of balofloxacin was 0.2 μg/mL, and for the latter, concentration of balofloxacin was 25 μg/mL. It was investigated effects of compound amino acids of different concentrations in synergy with antibiotics of the above concentrations on survival rates of sensitive bacteria and corresponding resistant bacteria.

[12] = test system: ampicillin-resistant bacteria (K12-RAMP); experiment: survival rate of bacteria, compound amino acids in synergy with ampicillin; assay type: cell-based, Escherichia coli; details: ampicillin 2000 μg/mL; second of 8 values, taken as ampicillin without compound amino acids
Description: Taking Escherichia coli sensitive bacteria K12 and artificially passaged ampicillin-resistant bacteria (K12-RAMP) as research objects, for the former, concentration of ampicillin was 40 μg/mL, and for the latter, concentration of ampicillin was 2000 μg/mL. It was investigated effects of 0.125, 0.5, 2.0, 8.0, 32, and 64 mM compound amino acids in synergy with antibiotics of the above concentrations on survival rates of sensitive bacteria and corresponding resistant bacteria.

Compound: Cc1nnc(SCC2=C(C(=O)O)N3C(=O)[C@@H](NC(=O)Cn4cnnn4)[C@H]3SC2)s1 [cefazolin]
- survival rate of bacteria ([1]; as printed in b79: K12-RCZO, compound amino acids 0 mM, 1000 μg/mL cefazolin (results of FIG. 4)): 89.6%
- survival rate of bacteria ([1]; cefazolin 62.5 μg/mL, compound amino acids not added, 6 h): 87.5%
- survival rate of bacteria ([1]; cefazolin 125 μg/mL, compound amino acids not added, 6 h): 96.9%
- survival rate of bacteria ([1]; cefazolin 250 μg/mL, compound amino acids not added, 6 h): 83.3%
- survival rate of bacteria ([1]; cefazolin 500 μg/mL, compound amino acids not added, 6 h): 78.6%
- survival rate ([1]; cefazolin 1,000 μg/mL, compound amino acids 0 mM, 6 h): 92.6%
- survival rate of bacteria ([1]; cefazolin 1,000 μg/mL, compound amino acids not added, 6 h): 83.3%
- survival rate of bacteria ([1]; cefazolin 2,000 μg/mL, compound amino acids not added, 6 h): 84.4%
- survival rate of bacteria ([1]; cefazolin 4,000 μg/mL, compound amino acids not added, 6 h): 69.8%
- survival rate of bacteria ([2]; M9 control group with antibiotics added (1 mg/mL cefazolin), 6 h): 45.9%
- survival rate of bacteria ([2]; only cefazolin is added): 85.04%
- MIC [3]: 1.25 µg/mL (≈ 2.75 µM)
- MIC ([4]; Escherichia coli, read-out: MIC against cefazolin): 80 µg/mL (≈ 176 µM)
- MIC relative to that of the starting strain ([4]; K12-RCZO vs K12): 64 times
- MIC ([5]; 37% of the remaining clinical Escherichia coli resistant bacteria): > 640 µg/mL
- MIC ([5]; clinical strain Y1): 40 µg/mL (≈ 88 µM)
- MIC ([5]; clinical strain Y3): 2.5 µg/mL (≈ 5.5 µM)
- MIC ([5]; clinical strain Y5): 10 µg/mL (≈ 22 µM)
- MIC ([5]; clinical strain Y6): 40 µg/mL (≈ 88 µM)
- MIC ([5]; clinical strain Y7): 2.5 µg/mL (≈ 5.5 µM)
- MIC ([5]; clinical strain Y8): 5 µg/mL (≈ 11 µM)
- MIC ([5]; clinical strain Y11): 10 µg/mL (≈ 22 µM)
- MIC ([5]; clinical strain Y12): 40 µg/mL (≈ 88 µM)
- MIC ([5]; clinical strain Y15): 5 µg/mL (≈ 11 µM)
- MIC ([5]; clinical strain Y16): 5 µg/mL (≈ 11 µM)
- MIC ([5]; clinical strain Y17): 10 µg/mL (≈ 22 µM)
- MIC ([5]; clinical strain Y18): 20 µg/mL (≈ 44 µM)
- MIC ([5]; clinical strain Y19): 5 µg/mL (≈ 11 µM)
- MIC ([5]; clinical strain Y20): 20 µg/mL (≈ 44 µM)
- MIC ([5]; clinical strain Y21): 20 µg/mL (≈ 44 µM)
- MIC ([5]; clinical strain Y22): 5 µg/mL (≈ 11 µM)
- MIC ([5]; clinical strain Y23): 2.5 µg/mL (≈ 5.5 µM)
- MIC ([5]; clinical strain Y24): 20 µg/mL (≈ 44 µM)
- MIC ([5]; clinical strain Y28): 5120 µg/mL (≈ 11300 µM)
- MIC ([5]; clinical strain Y32): 5120 µg/mL (≈ 11300 µM)
- MIC ([5]; clinical strain Y36): 5120 µg/mL (≈ 11300 µM)
- MIC ([5]; clinical strain Y40): 20 µg/mL (≈ 44 µM)
- survival rate ([6]; cefazolin 80 μg/mL, compound amino acids 0 mM, 6 h): 89.6%
- survival rate [7]: 85.9%
- survival rate [8]: 79.3%
- survival rate [9]: 58.0%
- survival rate [10]: 62.1%

Compound: CNC1CCCN(c2c(F)cc3c(=O)c(C(=O)O)cn(C4CC4)c3c2OC)C1 (centres unmarked) [balofloxacin]
- survival rate [11]: 90.2%

Compound: CO/N=C(\C(=O)N[C@@H]1C(=O)N2C(C(=O)O)=C(CSC(=O)c3ccco3)CS[C@H]12)c1csc(N)n1 [ceftiofur]
- survival rate of bacteria ([6]; ceftiofur 200 μg/mL, 6 h): 61.9%

Compound: CO/N=C(\C(=O)N[C@@H]1C(=O)N2C(C(=O)O)=C(CSc3nc(=O)c(=O)[nH]n3C)CS[C@H]12)c1csc(N)n1 [ceftriaxone]
- survival rate of bacteria ([6]; ceftriaxone 10 μg/mL, 6 h): 73.1%

Compound: N[C@@H](CSSC[C@H](N)C(=O)O)C(=O)O [cystine]
- survival rate ([2]; amino acid alone at 4 μM in synergy with cefazolin): 94.1%

Compound: NCC(=O)O [glycine]
- survival rate ([2]; amino acid alone at 233 μM in synergy with cefazolin): 71.4%

Compound: N[C@@H](CO)C(=O)O [serine]
- survival rate ([2]; amino acid alone at 47 μM in synergy with cefazolin): 67.9%

Compound: CC(=O)O.NCCCC[C@H](N)C(=O)O [lysine acetate]
- survival rate ([2]; amino acid alone at 133 μM in synergy with cefazolin): 68.6%

Compound: N=C(N)NCCC[C@H](N)C(=O)O [arginine]
- survival rate ([2]; amino acid alone at 140 μM in synergy with cefazolin): 97.3%

Compound: CC1(C)S[C@@H]2[C@H](NC(=O)[C@H](N)c3ccccc3)C(=O)N2[C@H]1C(=O)O [ampicillin]
- survival rate [12]: 87.2%
- survival rate ([6]; ampicillin 40 μg/mL, second of 8 values, taken as ampicillin without compound amino acids): 86.7%

Compound: N[C@@H](Cc1ccc(O)cc1)C(=O)O [tyrosine]
- survival rate ([2]; amino acid alone at 5 μM in synergy with cefazolin): 80.5%

Compound: N[C@@H](CCC(=O)O)C(=O)O [glutamic acid]
- survival rate ([2]; amino acid alone at 85 μM in synergy with cefazolin): 94.5%

Compound: CC(C)[C@H](N)C(=O)O [valine]
- survival rate ([2]; amino acid alone at 136 μM in synergy with cefazolin): 78.8%

Compound: C[C@@H](O)[C@H](N)C(=O)O [threonine]
- survival rate ([2]; amino acid alone at 105 μM in synergy with cefazolin): 59.4%

Compound: O=C(O)[C@@H]1CCCN1 [proline]
- survival rate ([2]; amino acid alone at 126 μM in synergy with cefazolin): 85.4%

Compound: N[C@@H](Cc1c[nH]cn1)C(=O)O [histidine]
- survival rate ([2]; amino acid alone at 96 μM in synergy with cefazolin): 97.6%

Compound: CC(C)C[C@H](N)C(=O)O [leucine]
- survival rate ([2]; amino acid alone at 129 μM in synergy with cefazolin): 75.7%

Compound: N[C@@H](Cc1ccccc1)C(=O)O [phenylalanine]
- survival rate ([2]; amino acid alone at 106 μM in synergy with cefazolin): 98.8%

Compound: CSCC[C@H](N)C(=O)O [methionine]
- survival rate ([2]; amino acid alone at 83 μM in synergy with cefazolin): 91.5%

Compound: CC[C@H](C)[C@H](N)C(=O)O [isoleucine]
- survival rate ([2]; amino acid alone at 95 μM in synergy with cefazolin): 69.6%

Compound: N[C@@H](CC(=O)O)C(=O)O [aspartate]
- survival rate ([2]; amino acid alone at 56 μM in synergy with cefazolin): 94.5%

Compound: C[C@H](N)C(=O)O [alanine]
- survival rate ([2]; amino acid alone at 404 μM in synergy with cefazolin): 73.6%

Compound: N[C@@H](Cc1c[nH]c2ccccc12)C(=O)O [tryptophan]
- survival rate ([2]; amino acid alone at 20 μM in synergy with cefazolin): 67.4%
